Laboratory results from patent US8497279B2, “Treatment for discoid lupus” (Rigel Pharmaceuticals, Inc., priority 2011, dated 2013).
Structures can show the parent of a compound that is named as a salt. Where two headings read alike, the source gives them in different places. Each block holds one compound with its values, some of them ahead of it.

How the values were obtained:
JAK3 = target: T1, JAK3 (Homo sapiens, UniProt P52333); assay: Human cell based assay against JAK3; conditions: human cell based assays; read-out: half maximal effective concentration (EC50) against JAK3
T1 construct: endogenous in cells
T1 sequence (P52333 1-1124): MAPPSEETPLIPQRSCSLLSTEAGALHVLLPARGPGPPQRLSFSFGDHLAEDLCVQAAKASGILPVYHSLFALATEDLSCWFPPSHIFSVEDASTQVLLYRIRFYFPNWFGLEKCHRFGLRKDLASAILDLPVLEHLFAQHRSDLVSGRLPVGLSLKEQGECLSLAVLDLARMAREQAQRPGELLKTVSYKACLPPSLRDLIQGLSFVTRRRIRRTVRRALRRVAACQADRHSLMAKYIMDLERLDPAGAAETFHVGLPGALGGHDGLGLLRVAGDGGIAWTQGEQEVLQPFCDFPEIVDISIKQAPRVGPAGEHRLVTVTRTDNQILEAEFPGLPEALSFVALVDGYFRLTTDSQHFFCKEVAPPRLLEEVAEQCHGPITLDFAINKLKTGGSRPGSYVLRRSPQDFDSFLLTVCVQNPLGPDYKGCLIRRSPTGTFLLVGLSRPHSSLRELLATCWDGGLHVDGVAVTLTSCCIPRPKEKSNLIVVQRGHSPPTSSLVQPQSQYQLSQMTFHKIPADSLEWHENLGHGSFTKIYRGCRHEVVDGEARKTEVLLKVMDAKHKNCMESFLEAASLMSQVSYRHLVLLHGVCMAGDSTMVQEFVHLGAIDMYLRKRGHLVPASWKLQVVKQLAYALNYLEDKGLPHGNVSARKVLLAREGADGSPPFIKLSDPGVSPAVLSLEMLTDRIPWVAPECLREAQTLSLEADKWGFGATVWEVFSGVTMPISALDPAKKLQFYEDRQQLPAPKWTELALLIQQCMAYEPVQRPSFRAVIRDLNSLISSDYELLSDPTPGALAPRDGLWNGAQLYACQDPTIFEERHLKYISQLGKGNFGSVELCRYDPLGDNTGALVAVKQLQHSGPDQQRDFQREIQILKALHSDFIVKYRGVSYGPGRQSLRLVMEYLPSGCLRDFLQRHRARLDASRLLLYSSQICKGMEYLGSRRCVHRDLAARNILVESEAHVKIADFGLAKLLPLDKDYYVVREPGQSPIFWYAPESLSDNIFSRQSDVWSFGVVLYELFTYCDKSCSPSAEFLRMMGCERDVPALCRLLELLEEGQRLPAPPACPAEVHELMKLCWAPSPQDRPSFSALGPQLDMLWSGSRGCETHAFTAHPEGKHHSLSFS

Syk = target: T2, Syk (Homo sapiens, UniProt P43405); assay: Human cell based assay against Syk; conditions: human cell based assays; read-out: half maximal effective concentration (EC50) against Syk
T2 construct: endogenous in cells

IL-1β = assay: Other cytokine signaling (IL-1β); format: cell-based
TNFα = assay: Other cytokine signaling (TNFα); format: cell-based
[1] = tested on: receptor tyrosine kinase (RTK); assay: Receptor tyrosine kinase (RTK) signaling; format: cell-based
cell proliferation = assay: Cell proliferation (broad inhibition); format: cell-based
JAK1 and JAK3 kinases = assay: Ramos B-cell line stimulated with IL-4, CD23 upregulation (FACS); format: cell-based, human
Method: One means of assaying for JAK inhibition is detection of the effect of compounds I and II on the upregulation of downstream gene products. In the Ramos/IL4 assay, B-cells are stimulated with the cytokine Interleukin-4 (IL-4) leading to the activation of the JAK/Stat pathway through phosphorylation of the JAK family kinases, JAK1 and JAK3, which in turn phosphorylate and activate the transcription factor Stat-6. […] Twenty to 24 hours post stimulation, cells are stained for upregulation of CD23 and analyzed using flow cytometry (FACS). […] An exemplary assay of this type is described in greater detail below. B-cells stimulated with cytokine Interleukin-4 (IL-4) activate the JAK/Stat pathway through phosphorylation of the JAK family kinases, JAK-1 and JAK-3, which in turn phosphorylate and activate the transcription factor Stat-6. […] To study the effect of inhibitors on the JAK family kinases, human Ramos B cells are stimulated with human IL-4. The Ramos B-cell line was acquired from [NT] No. CRL-1596). The cells were cultured in RPMI 1640 (Cellgro, MediaTech, Inc., Herndon, Va., Cat No. 10-040-CM) with 10% fetal bovine serum (FBS), heat inactivated (JRH Biosciences, Inc, Lenexa, Kans., Cat No. 12106-500M) according to ATCC propagation protocol. Cells were maintained at a density of 3.5×10^5. The day before the experiment, Ramos B-cells were diluted to 3.5×10^5 cells/mL to ensure that they were in a logarithmic growth phase. Cells were spun down and suspended in RPMI with 5% serum. 5×10^4 cells were used per point in a 96-well tissue culture plate. Cells were pre-incubated with compound or DMSO (Sigma-Aldrich, St. Louis, Mo., Cat No. D2650) vehicle control for 1 hour in a 37° C. incubator. Cells were then stimulated with IL-4 (Peprotech Inc., Rocky Hill, N.J., Cat No. 200-04) for a final concentration of 50 units/mL for 20-24 hours. Cells were then spun down and stained with anti-CD23-PE(BD Pharmingen, San Diego, Calif., Cat No. 555711) and analyzed by FACS. Detection was performed using a BD LSR I System Flow Cytometer, purchased from Becton Dickinson Biosciences of San Jose, Calif.

primary human T-cells = assay: Primary human T-cell proliferation assay stimulated with IL-2 (CellTiter-Glo); format: cell-based; conditions: read-out: Example 4 IC50
Excerpt: In this assay, primary human T-cells derived from peripheral blood and pre-activated through stimulation of the T-cell receptor and CD28, proliferate in culture in response to the cytokine Interleukin-2 (IL-2). This proliferative response is dependent on the activation of JAK1 and JAK3 tyrosine kinases, which phosphorylate and activate the transcription factor Stat-5. […] A reduction in cell proliferation compared to control conditions is indicative of inhibition of the JAK kinase pathway. An exemplary assay of this type is described in greater detail below.
Primary human T-cells derived from peripheral blood and pre-activated through stimulation of the T-cell receptor and CD28, proliferate in vitro in response to the cytokine Interleukin-2 (IL-2). This proliferative response is dependent on the activation of JAK-1 and JAK-3 tyrosine kinases, which phosphorylate and activate the transcription factor Stat-5.
Human primary T cells were prepared as follows. […] The lymphocytes at the serum: ficoll interface were recovered and washed twice with 5 volumes of PBS. […] The primary T-cells were stimulated for 3-4 days, then transferred to a fresh flask and maintained in RPMI with 10% FBS and 40 U/mL IL-2.
Primary T-cells were washed twice with PBS to remove the IL-2 and resuspended in Yssel's medium at 2×10^6 cells/mL. 50 μL of cell suspension containing 80 U/mL IL-2 was added to each well of a flat bottom 96 well black plate. For the unstimulated control, IL-2 was omitted from the last column on the plate. […] 50 μL of 2× compound was added per well in duplicate and the cells were allowed to proliferate for 72 hours at 37° C.
Proliferation was measured using CellTiter-Glo® Luminescent Cell Viability Assay (Promega), which determines the number of viable cells in culture based on quantitation of the ATP present, as an indicator of metabolically active cells. The substrate was thawed and allowed to come to room temperature. After mixing the Cell Titer-Glo reagent and diluent together, 100 μL was added to each well. […]

JAK/Stat pathway = assay: U937 IFNγ ICAM1 FACS assay; format: cell-based, human; conditions: U937 cells, IFNγ 10 ng/mL, 18-24 hours, ICAM-1 expression; read-out: Example 6 IC50
Method: U937 human monocytic cells up-regulate ICAM-1 (CD54) surface expression in response to a variety of different stimuli. Therefore, using ICAM-1 expression as readout, compound effects on different signaling pathways can be assessed in the same cell type. IFNγ up-regulates ICAM-1 through activation of the JAK/Stat pathway. In this example, the up-regulation of ICAM-1 by IFNγ was assessed.
U937 cells were grown in 10% RPMI. The cells were then plated at a concentration of 100,000 cells per 160 μL in 96 well flat bottom plates. […] Then 4 μL of test compound was transferred to 76 μL of 10% RPMI resulting in a 10× solution (100 μM test compound, 5% DMSO). For control wells, 4 μL of DMSO was diluted into 76 μL 10% RPMI.
The assay was performed in duplicate with 8 points (8 3-fold dilution concentrations from […]) and with 4 wells of DMSO only (control wells) under stimulated conditions and 4 wells of DMSO only under unstimulated conditions.
The diluted compound plate was mixed 2× using a multimek (Beckman Coulter of Brea, Calif.) and then 20 μL of the diluted compounds was transferred to the 96 well plate containing 160 μL of cells, which were then mixed again twice at low speeds. The cells and compounds were then pre-incubated for 30 minutes at 37° C. with 5% CO2.
The 10× stimulation mix was made by preparing a 100 ng/mL solution of human IFNγ in 10% RPMI. […] The cells were kept under conditions for stimulation for 18-24 hours at 37° C. with 5% CO2.
The cells were transferred to a 96 well round bottom plate for staining and then kept on ice for the duration of the staining procedure. Cells were spun down at 1000 rpm for 5 minutes at 4° C., following which the supernatant was removed. Following removal of the supernatant, 1 μL APC conjugated mouse anti-human ICAM-1 antibody was added per 100 μL FACS buffer. The cells were then incubated on ice in the dark for 30 minutes. Following incubation, 150 μL of FACS buffer was added and the cells were centrifuged at 1000 rpm for 5 minutes at 4° C., following which the supernatant was removed. […]
Both % live cells and ICAM-1 expression was analyzed. […]

EC50 (JAK3): ~180 nM
EC50 (Syk): ~140 nM
activity on receptor tyrosine kinase (RTK) signaling [1]: little or no activity
Compound: C#CCOc1ccc(Nc2nc(Nc3ccc(C)c(S(N)(=O)=O)c3)ncc2F)cc1 [Compound I, N2-(3-Aminosulfonyl-4-methylphenyl)-5-fluoro-N-4-[4-(prop-2-ynyloxy)phenyl]-2,4-pyrimidinediamine]
activity on other cytokine signaling (IL-1β) (IL-1β): little or no activity
activity on other cytokine signaling (TNFα) (TNFα): little or no activity
inhibition of cell proliferation (cell proliferation): not a broad inhibitor of cell proliferation

Compound: C#CCOc1ccc(Nc2nc(Nc3ccc(C)c(S(=O)(=O)NC(=O)CC)c3)ncc2F)cc1 [II, 5-fluoro-N2-(4-methyl-3-propionylaminosulfonylphenyl)-N-4-[4-(prop-2-ynyloxy)phenyl]-2,4-pyrimidinediamine]
IC50 (JAK1 and JAK3 kinases; Homo sapiens, Ramos B cells, IL-4 50 units/mL, 20-24 hours, CD23 staining, read-out: Example 3 IC50): 9660 nM

Compound: C#CCOc1ccc(Nc2nc(Nc3ccc(C)c(S(=O)(=O)NC(=O)CC)c3)ncc2F)cc1 [III, 5-fluoro-N2-(4-methyl-3-propionylaminosulfonylphenyl)-N-4-[4-(prop-2-ynyloxy)phenyl]-2,4-pyrimidinediamine mono-sodium salt]
IC50 (JAK1 and JAK3 kinases; Ramos B cells, IL-4 50 units/mL, 20-24 hours, CD23 staining, mono-sodium salt, read-out: Example 3 IC50): 3970 nM

Compound: C#CCOc1ccc(Nc2nc(Nc3ccc(C)c(S(=O)(=O)NC(=O)CC)c3)ncc2F)cc1 [IV, 5-Fluoro-N2-[4-methyl-3-(N-propionylaminosulfonyl)phenyl]-N4-[4-(2-propynyloxy)phenyl]-2,4-pyrimidinediamine Potassium Salt]
IC50 (JAK1 and JAK3 kinases; Homo sapiens, Ramos, read-out: Example 3 IC50, Ramos B cells, IL-4 50 units/mL, 20-24 hours, CD23 staining): 2320 nM
IC50 (primary human T-cells; Homo sapiens, T-cell, 72 h): 5560 nM

Compound: C#CCOc1ccc(Nc2nc(Nc3ccc(C)c(S(=O)(=O)NC(=O)CC)c3)ncc2F)cc1 [V, 5-Fluoro-N2-[4-methyl-3-(N-propionylaminosulfonyl)phenyl]-N-4-[4-(2-propynyloxy)phenyl]-2,4-pyrimidinediamine Calcium Salt]
IC50 (JAK1 and JAK3 kinases; Ramos B cells, IL-4 50 units/mL, 20-24 hours, CD23 staining, Calcium Salt, read-out: Example 3 IC50): 373 nM
IC50 (JAK/Stat pathway): 25100 nM

Compound: C#CCOc1ccc(Nc2nc(Nc3ccc(C)c(S(=O)(=O)NC(=O)CC)c3)ncc2F)cc1 [VII, 5-Fluoro-N2-[4-methyl-3-(N-propionylaminosulfonyl)phenyl]-N4-[4-(2-propynyloxy)phenyl]-2,4-pyrimidinediamine Choline Salt]
IC50 (JAK1 and JAK3 kinases; Ramos B cells, IL-4 50 units/mL, 20-24 hours, CD23 staining, read-out: Example 3 IC50): 22 nM
IC50 (primary human T-cells; primary human T-cells, IL-2, 72 hours, ATP readout): 53 nM
IC50 (JAK/Stat pathway): 140 nM
